According to patent US20250367267A1, “TREATING AUTOIMMUNE DISEASES WITH INSULIN-LIKE GROWTH FACTOR 1 RECEPTOR LIGAND CONJUGATED TO AN AGENT” (Lirum Therapeutics, Inc., priority 2022, published 2025):
Entries after “also recorded” stand apart in the source; their conditions may differ.

Columns and labels:
[1] = system: CD19+ B cells and CD3+ T cells in the peripheral blood of SLE patients; conditions: Jacobi et al 2010; cited from earlier work
IGFBPs = conditions: known in the art (U.S. Pat. No. 4,876,242; Francis et al. 1992); cited from earlier work
[2] = system: bulk subpopulations of PBMCs from patients with SLE, RA and SSc; experiment: Effect of LX-101 on bulk PBMC subpopulations (percentage of live cells by flow cytometry); format: cell-based, human; conditions: 17 μM LX-101, three days
Source text: Frozen peripheral blood mononuclear cells (PBMCs) were obtained from Discovery Life Sciences from patients diagnosed with lupus, rheumatoid arthritis, and scleroderma. One sample was obtained from a person diagnosed with systemic lupus erythematosus (SLE) undergoing active treatment with methotrexate, Celebrex, prednisone, and Benlysta. A second sample was obtained from a person diagnosed with scleroderma (SSc) before receiving treatment. A third sample was obtained from a person diagnosed with rheumatoid arthritis (RA) undergoing active treatment with Nabumetone. All samples were collected following informed consent.
The PBMCs were thawed, washed, and resuspended in AIM V media with 5% human AB serum (hAB) at a concentration of 1×10^6 cells/mL. PBMCs were seeded in a 24 well plate (1×10^6 cells/well) and treated with a 17 μM of LX-101 or hydrochloric acid (HCl) as a vehicle control. […]
After the three day incubation with LX-101 or the vehicle control, the PBMCs were blocked with human TruStain FcX Fc receptor blocking solution, and stained with an antibody mixture with markers shown in Table 2. […] Data were analyzed with Kaluza software.
The effect of LX-101 was analyzed for both the bulk PBMC and IGF-1R^+ subpopulations. The percentages of live, B cells, CD4^+ T cells, CD8^+ T cells, NK cells, and NKT cells were determined.

[3] = system: IGF-1R+ subpopulations of PBMCs from patients with SLE, RA and SSc; experiment: Effect of LX-101 on IGF-1R+ PBMC subpopulations (percentage of live IGF-1R+ cells by flow cytometry); format: cell-based, human; conditions: 17 μM LX-101, three days
Source text: Frozen peripheral blood mononuclear cells (PBMCs) were obtained from Discovery Life Sciences from patients diagnosed with lupus, rheumatoid arthritis, and scleroderma. One sample was obtained from a person diagnosed with systemic lupus erythematosus (SLE) undergoing active treatment with methotrexate, Celebrex, prednisone, and Benlysta. A second sample was obtained from a person diagnosed with scleroderma (SSc) before receiving treatment. A third sample was obtained from a person diagnosed with rheumatoid arthritis (RA) undergoing active treatment with Nabumetone. All samples were collected following informed consent. The PBMCs were thawed, washed, and resuspended in AIM V media with 5% human AB serum (hAB) at a concentration of 1×10^6 cells/mL. PBMCs were seeded in a 24 well plate (1×10^6 cells/well) and treated with a 17 μM of LX-101 or hydrochloric acid (HCl) as a vehicle control. LX-101 was supplied at a concentration of 4 mM (where the concentration is expressed in terms of the amount of methotrexate in the drug) in 10 mM HC1. The vehicle control groups received the same concentration of HCl as that in the LX-101 solution received by the treatment group. PBMCs were incubated at 37° C. with 5% CO2 for three days. After the three day incubation with LX-101 or the vehicle control, the PBMCs were blocked with human TruStain FcX Fc receptor blocking solution, and stained with an antibody mixture with markers shown in Table 2. Cells were fixed and flow cytometric data were collected for 50,000 live cell events using a BD LSRFortessa X-20 flow cytometer. Data were analyzed with Kaluza software. The effect of LX-101 was analyzed for both the bulk PBMC and IGF-1R^+ subpopulations. The percentages of live, B cells, CD4^+ T cells, CD8^+ T cells, NK cells, and NKT cells were determined.

IGF-1R = IGF-1R (Homo sapiens, UniProt P08069); conditions: Hakuno et al. 2018; cited from earlier work
[4] = PBMCs from SLE, RA and SSc patients

Chain of IGF-1R (P08069 31-736 limits assumed, species assumed): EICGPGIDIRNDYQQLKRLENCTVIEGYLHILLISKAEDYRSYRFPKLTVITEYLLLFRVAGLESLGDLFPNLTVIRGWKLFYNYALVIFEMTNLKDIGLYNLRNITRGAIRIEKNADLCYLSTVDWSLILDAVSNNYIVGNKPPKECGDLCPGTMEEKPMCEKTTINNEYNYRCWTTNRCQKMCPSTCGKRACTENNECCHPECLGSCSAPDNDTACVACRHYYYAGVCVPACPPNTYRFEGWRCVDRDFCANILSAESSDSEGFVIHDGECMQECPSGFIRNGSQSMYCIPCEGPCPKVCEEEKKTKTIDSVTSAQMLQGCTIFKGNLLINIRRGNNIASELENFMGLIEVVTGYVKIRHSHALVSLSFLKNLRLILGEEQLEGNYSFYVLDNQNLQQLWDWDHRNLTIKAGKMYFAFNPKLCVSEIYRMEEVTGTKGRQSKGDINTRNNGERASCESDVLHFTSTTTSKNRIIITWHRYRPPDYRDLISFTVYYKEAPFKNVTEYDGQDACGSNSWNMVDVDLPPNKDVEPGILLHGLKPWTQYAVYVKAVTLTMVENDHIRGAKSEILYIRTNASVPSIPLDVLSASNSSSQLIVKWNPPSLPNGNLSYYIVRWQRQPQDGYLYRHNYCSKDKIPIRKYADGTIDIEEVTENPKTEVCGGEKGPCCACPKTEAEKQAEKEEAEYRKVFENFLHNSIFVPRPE
Chain of IGF-1R (P08069 741-1367 partner limits assumed, species assumed): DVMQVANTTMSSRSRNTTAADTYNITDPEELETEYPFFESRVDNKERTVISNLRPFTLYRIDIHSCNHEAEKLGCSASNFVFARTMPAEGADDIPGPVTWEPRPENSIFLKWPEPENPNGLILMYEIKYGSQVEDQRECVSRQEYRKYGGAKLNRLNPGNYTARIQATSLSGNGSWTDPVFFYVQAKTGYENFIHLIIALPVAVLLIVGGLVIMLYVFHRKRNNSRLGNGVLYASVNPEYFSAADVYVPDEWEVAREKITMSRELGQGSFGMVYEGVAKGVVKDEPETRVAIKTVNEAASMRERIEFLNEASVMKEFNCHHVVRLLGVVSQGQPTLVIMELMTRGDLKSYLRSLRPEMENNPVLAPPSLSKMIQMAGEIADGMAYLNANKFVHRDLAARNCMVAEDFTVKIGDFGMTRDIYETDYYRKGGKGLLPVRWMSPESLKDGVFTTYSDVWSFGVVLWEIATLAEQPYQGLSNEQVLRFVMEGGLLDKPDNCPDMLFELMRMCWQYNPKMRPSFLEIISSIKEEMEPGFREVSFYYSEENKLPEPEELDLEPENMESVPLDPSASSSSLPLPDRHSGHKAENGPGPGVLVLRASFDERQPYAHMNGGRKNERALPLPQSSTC

Molecule: Benlysta: a B lymphocyte stimulator (BLyS)-specific inhibitor
- number of CD3+ T cells [1]: not affected
- total CD19+ B cells in the peripheral blood [1]: decrease

Molecule: des (1-3) IGF-1: lacks the first three amino acids of human IGF-1
- binding affinity for IGFBPs compared to wildtype IGF-1 (IGFBPs): reduced binding affinity

Molecule: LX-101
- off-target effects in IGF-1R− cells [2]: Little off-target effects
- percentage of live B cells, CD4+ T cells, CD8+ T cells, NK cells and NKT cells in the bulk PBMC population, vs vehicle control [2]: Little difference
- percentage of IGF-1R+CD19+ B cells vs vehicle control [3, 4]: reduced percentages; also recorded: reduction
- percentage of live IGF-1R+ cells (all subpopulations) vs vehicle control [3, 4]: marked reductions; also recorded: Reduced percentages
- IGF-1R+CD3+CD8+ T cells vs vehicle control ([3]; SLE, RA and SSc samples): reduction; also recorded: reduced percentages
- IGF-1R+CD56+CD3+ natural killer T (NKT) cells vs vehicle control ([3]; SLE, RA and SSc samples): modest reduction; also recorded: reduced percentages
- IGF-1R+CD3+CD4+ T cells vs vehicle control ([3]; SLE, RA and SSc samples, especially RA sample): substantial reduction; also recorded: reduced percentages
- IGF-1R+CD56+CD3− natural killer (NK) cells vs vehicle control ([3]; particularly samples from SLE and RA patients): reduction; also recorded: reduced percentages

Molecule: insulin: native ligand to the IGF-1R; two chains connected by disulfide bonds
- affinity for IGF-1R, fold lower than the IGFs (IGF-1R): 50- to 100 fold

Molecule: R3-IGF-1: glutamic acid in position 3 of native human IGF-1 is substituted by arginine
- binding affinity for IGFBPs compared to wildtype IGF-1 (IGFBPs): reduced binding affinity

B1: IGF132: first 17 amino acids of the B chain of insulin replace the first 16 amino acids of human IGF-1 (protein)
chain: FVNQHLCGSHLVEALYLVCGDRGFYFNKPTGYGSSSRRAPQTGIVDECCFRSCDLRRLEMYCAPLKPAKSA
- binding affinity for IGFBPs compared to wildtype IGF-1 (IGFBPs): reduced binding affinity
